# Data as given in patent publication US20110028444A1, “PHARMACEUTICALLY ACCEPTABLE SALTS OF ANTI-INFECTION QUINOLONE COMPOUNDS” (priority 2008, published 2011).
# Read-outs that look alike come from different tables or passages of the source.
# Assays:
# [1] = Solubility test: maximum solubility in water; type: physicochemical; conditions: thermodynamic from solid
# Description: Three lots of mesylates and three lots of lactates, respectively, were subjected to preliminary tests for maximum solubility in water. At ambient temperature (25° C.), 0.2 g of sample was dissolved in 1 mL of water. To the solution was added 0.1 g of the sample each time until the sample could no longer be dissolved. The amount of sample dissolved was the maximum solubility.
# Staphylococcus aureus = experiment: In-vitro antibacterial test, agar dilution MIC; type: cell-based; conditions: for MIC: Staphylococcus aureus, read-out: In-vitro MIC
# Description: (§4) The test bacterial strains were the standard quality control test strains of Klebsiella pneumoniae strains (Strains No. CMCC 46114-8), Pseudomonas aeruginosa (Strains No. ATCC 27853), Escherichia coli (Strains No. ATCC25922), and Staphylococcus aureus cocci (Strains No. ATCC25925). Other bacteria included those isolated from sputum, throat swab or urine of patients with acute bacterial respiratory tract infection or urinary tract infection and identified by the hospitals.
# (§5) HCl levofloxacin injection and NaCl ciprofloxacin lactate injection were diluted with sterilized distilled water to a concentration of 1920 μg/mL.
# Streptococcus pneumoniae = experiment: In-vitro antibacterial test, agar dilution MIC; type: cell-based; conditions: for MIC: Streptococcus pneumoniae, read-out: In-vitro MIC
# Description: (§1) Test method: the agar dilution method was used for the minimum inhibitory concentration (MIC) determination. The antibacterial chemicals were mixed with given amounts of agar in various concentrations and the mixtures were made into solid plates. Each plate had the antibacterial concentration two times higher than the next plate. Bacteria species were then added to the surface of the plates, cultured, and observed for their growth.
# (§2) Other bacteria included those isolated from sputum, throat swab or urine of patients with acute bacterial respiratory tract infection or urinary tract infection and identified by the hospitals.
# (§3) (S)-6-fluoro-1-methyl-4-oxo-7-(1-piperazinyl)-1H,4H-[1,3]thiazeto[3,2-a]quino line-3-carboxylic acid lactate and other test samples, equivalent to 96 mg of ulifloxacin, were dissolved in sterilized distilled water to make up 50 mL of each solution.
# Enterobacter cloacae = experiment: In-vitro antibacterial test, agar dilution MIC; type: cell-based; conditions: read-out: In-vitro MIC
# Description: as §4, §5
# Enterococcus faecalis = experiment: In-vitro antibacterial test, agar dilution MIC; type: cell-based; conditions: read-out: In-vitro MIC
# Description: as §4, §5
# Escherichia coli = experiment: In-vitro antibacterial test, agar dilution MIC; type: cell-based; conditions: for MIC: Escherichia coli, read-out: In-vitro MIC
# Description: as §4, §5
# Vibrio cholerae = experiment: In-vitro antibacterial test, agar dilution MIC; type: cell-based; conditions: for MIC: Vibrio cholerae, read-out: In-vitro MIC; for In-vitro MIC: agar dilution
# Description: as §4, §5
# Klebsiella pneumoniae = experiment: In-vitro antibacterial test, agar dilution MIC; type: cell-based; conditions: for MIC: Klebsiella pneumoniae
# Description: as §4, §5
# Pseudomonas aeruginosa = experiment: In-vitro antibacterial test, agar dilution MIC; type: cell-based; conditions: for MIC: Pseudomonas aeruginosa, read-out: In-vitro MIC
# Description: as §4, §5
# [2] = system: Klebsiella pneumoniae, Pseudomonas aeruginosa, Staphylococcus aureus, Escherichia coli, Enterococcus faecalis, Streptococcus pneumoniae, Enterobacter cloacae …; experiment: In-vitro antibacterial tests, summary over the tested bacteria; type: cell-based; conditions: for antibacterial activity (in words): against the eight tested bacteria; for antibacterial activities compared with compounds 7 and 8: against the above four bacteria, concentrations calculated as equivalents to NM394
# Description: as §1, §2, §3
# [3] = system: New Zealand rabbit ear vein and surrounding tissues; experiment: Vascular irritation tests; type: in vivo, New Zealand rabbits; conditions: vein injection once a day for 3 days, high and low doses
# Description: Sixteen New Zealand rabbits were divided into 4 groups: a control group and three treatment groups for compounds 4, 5, and 6, respectively; each group had 4 rabbits. The rabbits of the treatment groups were vein-injected on their left ears with high doses of the test samples and on their right ears with low doses of the test samples. The rabbits of the control group were rein-injected on their both left and right ears with sodium chloride solution. The injections continued for 3 days, once a day. Two rabbits from each group were anatomized after 24 hours of each injection.
# [4] = maximum solubility in water, ambient temperature (25° C.), average of two tests, preliminary, read-out: Water Solubility
# [5] = high dose group (60 mg/kg·bw), after 28 days, tissue microscopy
# Description for SD rats: The dose without toxic reaction was thereby determined and the long term toxicity to SD rats was tested. One hundred forty SD rats were randomly divided into 7 groups depending on their body weight and sex; each group had 20 rats with 10 males and 10 females. […] The rats were administrated by intravenous injection, once a day for consecutive 4 weeks. The recovery was monitored for 2 weeks after treatment.
# Drug preparation: the drugs were dissolved with a saline solution to the desired concentration before administration. Administration: intravenous injection. Delivery period: 28 days continuously. Observation and inspection: Observation and inspection projects, targets and time: including the general state of observation (7), hematologic (16), biochemical blood test (18), urine (10) and pathological examination.
# General observation: the appearance of signs, behavior, glands, respiratory and stool, daily observation and timely recording, discovering dead or dying animals, timely anatomical examination, food intake, and body weight once weekly.
# Blood tests: abdominal aortic blood for hematology testing, in the 16 testing indicators, leukocyte classification using whole blood smear, Wright stain staining; prothrombin time (PT) with a 0.109 mmol/L of citrate Citrus medica sodium (with blood volume ratio of 1:9) anticoagulant, 3000 r/min centrifugal 10 min, taking with BE Thromotimer plasma coagulation analyzer (Germany) determination; other indicators to EDTA anticoagulant, using SWELAB AC920EO automated hematology analyzer (Sweden).
# Biochemical blood tests: blood sampling method same as above, blood serum obtained by 3000 r/min centrifugal 10 min. In the 21 indicators, the Na+, K+, Cl^− were determined using EasyLyte Plus Na/K/Cl analyzer (USA), the other indexes of blood were determined using a Hitachi 7020 automatic biochemical analyzer (Japan) determination.
# Urine tests: 16 h urine collection, using [sequence] 100 urine analyzer.
# Pathology: after anesthesia, the animal was killed by blood letting of the abdominal aorta. System anatomy and visual observation of changes in various organs were performed; and organ weights were determined. Tissue was fixed in 10% neutral formalin; plates were made by conventional paraffin producers, HE staining, and light microscopy.
# Statistical analysis: In the different groups, the body weight, hematology, blood chemistry, urine measurements, organ weights, organ coefficient were calculated for the mean±standard deviation and t-test comparison between groups. Pathological abnormalities according to their incidence and severity were compared between groups.
compound,measurement,setting,value
"CC(O)C(=O)O.CC1Sc2c(C(=O)O)c(=O)c3cc(F)c(N4CCNCC4)cc3n21 (racemic) [Ulifloxaci lactate (±), (±)-6-fluoro-1-methyl-4-oxo-7-(1-piperazinyl)-1H,4H-[1,3]thiazeto[3,2-a]quinoline-3-carboxylic acid lactate, reference compound]",solubility,[1]; [4],106 mg/mL
same,MIC,Staphylococcus aureus,0.25 µg/mL
same,MIC,Streptococcus pneumoniae,0.1 µg/mL
same,MIC,Enterobacter cloacae,1.25 µg/mL
same,MIC,Enterococcus faecalis; agar dilution,2 µg/mL
same,MIC,Escherichia coli,0.125 µg/mL
"CC1Sc2c(C(=O)O)c(=O)c3cc(F)c(N4CCNCC4)cc3n21.CS(=O)(=O)O (racemic) [Ulifloxaci mesylate (±), (±)-6-fluoro-1-methyl-4-oxo-7-(1-piperazinyl)-1H,4H-[1,3]thiazeto[3,2-a]quinoline-3-carboxylic acid mesylate, reference compound]",solubility,"[1]; 25 °C, water",340 mg/mL
same,MIC,Staphylococcus aureus; agar dilution,0.5 µg/mL
same,MIC,Streptococcus pneumoniae,0.088 µg/mL
same,MIC,Vibrio cholerae,0.5 µg/mL
same,MIC,Klebsiella pneumoniae,0.2 µg/mL
same,MIC,Enterobacter cloacae; agar dilution,1 µg/mL
same,MIC,Enterococcus faecalis,1.5 µg/mL
same,MIC,Escherichia coli,0.063 µg/mL
"O=C(O)c1cn(C2CC2)c2cc(N3CCNCC3)c(F)cc2c1=O [Ciprofloxacin, reference compound]",MIC,Staphylococcus aureus; agar dilution,0.5 to 1 µg/mL
same,MIC,Klebsiella pneumoniae,0.0313 to 0.0625 µg/mL
same,MIC,Pseudomonas aeruginosa; agar dilution,0.5 µg/mL
same,MIC,Escherichia coli; agar dilution,0.0313 µg/mL
"C[C@@H]1Sc2c(C(=O)O)c(=O)c3cc(F)c(N4CCNCC4)cc3n21 [Compound 2, (S)-6-fluoro-1-methyl-4-oxo-7-(1-piperazinyl)-1H,4H-[1,3]thiazeto[3,2-a]quinoline-3-carboxylic acid]",antibacterial activity relative to R-ulifloxacin,[2],3 to 10 times
same,antibacterial activity relative to racemic ulifloxacin,[2],two or more times
same,antibacterial activity (in words),[2],relatively strong antibacterial activity
same,MIC,Staphylococcus aureus; agar dilution,0.177 µg/mL
same,MIC,Streptococcus pneumoniae; agar dilution,0.025 µg/mL
same,MIC,Enterobacter cloacae; agar dilution,0.5 µg/mL
same,MIC,Pseudomonas aeruginosa; agar dilution,0.177 µg/mL
same,MIC,Escherichia coli; agar dilution,0.0125 µg/mL
"C[C@H]1Sc2c(C(=O)O)c(=O)c3cc(F)c(N4CCNCC4)cc3n21 [Compound 3, (R)-6-fluoro-1-methyl-4-oxo-7-(1-piperazinyl)-1H,4H-[1,3]thiazeto[3,2-a]quinoline-3-carboxylic acid]",MIC,Staphylococcus aureus; agar dilution,2.83 µg/mL
same,MIC,Streptococcus pneumoniae; agar dilution,0.25 µg/mL
same,MIC,Enterobacter cloacae; agar dilution,4 µg/mL
same,MIC,Pseudomonas aeruginosa; agar dilution,2 µg/mL
same,MIC,Escherichia coli; agar dilution,0.225 µg/mL
"CC(O)C(=O)O.C[C@@H]1Sc2c(C(=O)O)c(=O)c3cc(F)c(N4CCNCC4)cc3n21 [Compound 4, (S)-6-fluoro-1-methyl-4-oxo-7-(1-piperazinyl)-1H,4H-[1,3]thiazeto[3,2-a]quinoline-3-carboxylic acid lactate]",antibacterial activities compared with compounds 7 and 8,[2],slightly stronger
same,antibacterial activity (in words),[2],relatively strong antibacterial activity
same,solubility,[1]; [4],70 mg/mL
same,MIC,Staphylococcus aureus,0.125 µg/mL
same,MIC,Streptococcus pneumoniae,0.02 µg/mL
same,NOAEL (no observed adverse effect level),"SD rats; SD rats, 28 days continuous intravenous administration, calculated based on NM394",30 mg/kg·bw
same,targeted organ of toxicity,"SD rats; SD rats, intravenous",the kidney
same,rats with crystals in renal tubules,SD rats; [5],3
same,rats with kidney protein casts,SD rats; [5],one
same,rats with mild cortical tubular dilatation,SD rats; [5],3
same,rats with mild interstitial inflammatory cell infiltration,"SD rats; high dose group (60 mg/kg·bw), tissue microscopy",1
same,MIC,Enterobacter cloacae; agar dilution,0.5 µg/mL
same,irritation to ear vein and surrounding tissues,[3],no irritation
same,MIC,Pseudomonas aeruginosa,0.25 µg/mL
same,MIC,Enterococcus faecalis; agar dilution,0.5 µg/mL
same,MIC,Escherichia coli,0.01 µg/mL
"CS(=O)(=O)O.C[C@H]1Sc2c(C(=O)O)c(=O)c3cc(F)c(N4CCNCC4)cc3n21 [Compound 9, (R)-6-fluoro-1-methyl-4-oxo-7-(1-piperazinyl)-1H,4H-[1,3]thiazeto[3,2-a]quinoline-3-carboxylic acid mesylate]",solubility,"[1]; 25 °C, water",501 mg/mL
same,MIC,Staphylococcus aureus; agar dilution,2 µg/mL
same,MIC,Streptococcus pneumoniae,0.125 µg/mL
same,MIC,Vibrio cholerae,2 µg/mL
same,MIC,Klebsiella pneumoniae,0.5 µg/mL
same,MIC,Enterobacter cloacae; agar dilution,4 µg/mL
same,MIC,Pseudomonas aeruginosa,1 µg/mL
same,MIC,Enterococcus faecalis,4 µg/mL
"CC(O)C(=O)O.C[C@H]1Sc2c(C(=O)O)c(=O)c3cc(F)c(N4CCNCC4)cc3n21 [Compound 13, (R)-6-fluoro-1-methyl-4-oxo-7-(1-piperazinyl)-1H,4H-[1,3]thiazeto[3,2-a]quinoline-3-carboxylic acid lactate]",solubility,[1]; [4],116 mg/mL
same,MIC,Staphylococcus aureus,1 µg/mL
same,MIC,Streptococcus pneumoniae,0.125 µg/mL
same,MIC,Pseudomonas aeruginosa,1 µg/mL
same,MIC,Enterococcus faecalis; agar dilution,4 µg/mL
same,MIC,Escherichia coli,0.25 µg/mL
"C[C@H]1COc2c(N3CCN(C)CC3)c(F)cc3c(=O)c(C(=O)O)cn1c23 [Levofloxacin, reference compound]",MIC,Staphylococcus aureus; agar dilution,0.5 µg/mL
same,MIC,Klebsiella pneumoniae,0.0125 µg/mL
same,MIC,Pseudomonas aeruginosa; agar dilution,2 µg/mL
same,MIC,Escherichia coli; agar dilution,0.0313 µg/mL
"(R)-6-fluoro-1-methyl-4-oxo-7-(1-piperazinyl)-1H,4H-[1,3]thiazeto[3,2-a]quinoline-3-carboxylic acid aspartate [Compound 11]",In-vitro MIC,Staphylococcus aureus; agar dilution,2 µg/mL
same,In-vitro MIC,Pseudomonas aeruginosa; agar dilution,1 µg/mL
same,In-vitro MIC,Escherichia coli; agar dilution,0.25 µg/mL
"(R)-6-fluoro-1-methyl-4-oxo-7-(1-piperazinyl)-1H,4H-[1,3]thiazeto[3,2-a]quinoline-3-carboxylic acid gluconate [Compound 10]",In-vitro MIC,Staphylococcus aureus; agar dilution,1 µg/mL
same,In-vitro MIC,Vibrio cholerae,2 µg/mL
same,In-vitro MIC,Klebsiella pneumoniae,0.5 µg/mL
same,In-vitro MIC,Pseudomonas aeruginosa; agar dilution,1 µg/mL
same,In-vitro MIC,Escherichia coli; agar dilution,0.25 µg/mL
"(R)-6-fluoro-1-methyl-4-oxo-7-(1-piperazinyl)-1H,4H-[1,3]thiazeto[3,2-a]quinoline-3-carboxylic acid glutamate [Compound 12]",In-vitro MIC,Staphylococcus aureus; agar dilution,2 µg/mL
same,In-vitro MIC,Streptococcus pneumoniae; agar dilution,0.5 µg/mL
same,In-vitro MIC,Escherichia coli; agar dilution,0.5 µg/mL
"(S)-6-fluoro-1-methyl-4-oxo-7-(1-piperazinyl)-1H,4H-[1,3]thiazeto[3,2-a]quinoline-3-carboxylic acid aspartate [Compound 7]",antibacterial activity (in words),[2],relatively strong antibacterial activity
same,In-vitro MIC,Staphylococcus aureus; agar dilution,0.25 µg/mL
same,In-vitro MIC,Pseudomonas aeruginosa; agar dilution,0.25 µg/mL
same,In-vitro MIC,Escherichia coli; agar dilution,0.02 µg/mL
"(S)-6-fluoro-1-methyl-4-oxo-7-(1-piperazinyl)-1H,4H-[1,3]thiazeto[3,2-a]quinoline-3-carboxylic acid gluconate [Compound 6]",antibacterial activities compared with compounds 7 and 8,[2],slightly stronger
same,antibacterial activity (in words),[2],relatively strong antibacterial activity
same,In-vitro MIC,Staphylococcus aureus; agar dilution,0.25 µg/mL
same,In-vitro MIC,Vibrio cholerae,0.02 µg/mL
same,In-vitro MIC,Klebsiella pneumoniae,0.02 µg/mL
same,irritation to ear vein and surrounding tissues,[3],no irritation
same,In-vitro MIC,Pseudomonas aeruginosa; agar dilution,0.25 µg/mL
same,In-vitro MIC,Escherichia coli; agar dilution,0.01 µg/mL
"(S)-6-fluoro-1-methyl-4-oxo-7-(1-piperazinyl)-1H,4H-[1,3]thiazeto[3,2-a]quinoline-3-carboxylic acid glutamate [Compound 8]",antibacterial activity (in words),[2],relatively strong antibacterial activity
same,In-vitro MIC,Staphylococcus aureus; agar dilution,0.25 µg/mL
same,In-vitro MIC,Streptococcus pneumoniae; agar dilution,0.125 µg/mL
same,In-vitro MIC,Escherichia coli; agar dilution,0.01 µg/mL
"(±)-6-fluoro-1-methyl-4-oxo-7-(1-piperazinyl)-1H,4H-[1,3]thiazeto[3,2-a]quino line-3-carboxylic acid aspartate [Ulifloxaci aspartate (±), reference compound]",In-vitro MIC,Staphylococcus aureus; agar dilution,0.5 µg/mL
same,In-vitro MIC,Pseudomonas aeruginosa; agar dilution,0.5 µg/mL
same,In-vitro MIC,Escherichia coli; agar dilution,0.1 µg/mL
"(±)-6-fluoro-1-methyl-4-oxo-7-(1-piperazinyl)-1H,4H-[1,3]thiazeto[3,2-a]quinoline-3-carboxylic acid gluconate [Ulifloxaci gluconate (±), reference compound]",In-vitro MIC,Staphylococcus aureus; agar dilution,0.5 µg/mL
same,In-vitro MIC,Vibrio cholerae,0.5 µg/mL
same,In-vitro MIC,Klebsiella pneumoniae,0.2 µg/mL
same,In-vitro MIC,Pseudomonas aeruginosa; agar dilution,0.5 µg/mL
same,In-vitro MIC,Escherichia coli; agar dilution,0.05 µg/mL
"(±)-6-fluoro-1-methyl-4-oxo-7-(1-piperazinyl)-1H,4H-[1,3]thiazeto[3,2-a]quinoline-3-carboxylic acid glutamate [Ulifloxaci glutamate (±), reference compound]",In-vitro MIC,Staphylococcus aureus; agar dilution,0.5 µg/mL
same,In-vitro MIC,Streptococcus pneumoniae; agar dilution,0.2 µg/mL
same,In-vitro MIC,Escherichia coli; agar dilution,0.125 µg/mL
